# Reference: patent US20040229205A1, “Compositions for the storage of platelets” (priority 2003, published 2004)
# Legend:
# [1] = test system: platelets (P-selectin expression); assay: P-selectin expression of stored platelets by flow cytometry, basal and after 10 nM thrombin challenge; format: cell-based; settings: for Difference (% capable of being activated) / % Positive / P-Selectin Expression: five day stored platelets; for retained P-selectin expression activity: thrombin challenge
# Description: Internal protein expression may be measured by conjugation of a molecule with a fluorescent dye, followed by sorting in a fluorescent cell sorter. In general, it is preferable to use two monoclonal antibodies, one that binds a cell surface molecule expressed and a second that binds a cell surface molecule that is expressed only after activation. Each monoclonal antibody is conjugated to a different colored dye, that can be distinguished by spectrofluorometry. In the preferred embodiment, the normally expressed cell surface molecule is GPIIbIIIa; the cell surface molecule expressed after activation is P-selectin. It is well know in the art to make monoclonal antibodies to proteins. U.S. Pat. No. 5,470,738, issued in 1995 to Freilich et al, is one example of a method of making monoclonal antibodies to GPIIIa. Another anti-platelet monoclonal antibody is that to GP IV, as disclosed by U.S. Pat. No. 5,231,025, issued in 1993 to Gralnisch. However, it is most convenient to purchase antibodies commercially from such companies as Becton-Dickinson (Philadelphia).
# A basal measurement of spontaneous activation is obtained and the cells are then challenged with an agonist. The difference between cells challenged to activate minus the basal measurement is a measure of cell function. In the preferred embodiment, the agonist is 10 nM thrombin.
# P-selectin is an internal protein that is exposed on the surface of the platelet after activation. Once activated, platelets cannot be activated again, that is, they are nonfunctional. Platelets which have aggregated are likewise nonfunctional. Measurement of P-selectin before and after activation with thrombin provides a measure of the ability of the platelets to be activated.
# P-selectin expression in response to a challenge of 10 nM thrombin is a highly accurate and quantitative method to assess platelet function using flow cytometry techniques. A monoclonal antibody to the platelet GPIIbIIIa receptor (Becton-Dickinson) is conjugated with green fluorescence, marking all platelets with a green detection. […] About 10,000 to 25,000 platelets are counted and measured for P-selectin expression and the % positive cells are defined as activated platelets that express P-selectin. Platelets that are activated are not capable of being activated a second time; that is, they are essentially nonfunctional.
# It was proposed years ago by Dawson (Transfusion 21:215-218. (1981)) that ribose at the concentration of 15 mM is beneficial to stored whole blood. It was assumed that ribose functioned by raising the energy levels of the cells, as discussed at length in U.S. Pat. No. 6,159,942. […] However, it should be noted that the platelet storage milieu is an austere environment, lacking the homeostatic and buffering mechanisms of the kidneys, lungs and livers of an intact organism. Various concentrations of D-Ribose were tested to determine the optimum level for platelet storage. […] Platelet concentrate bags were obtained from a local transfusion center within two hours of collection from the donor. The platelets were either supplemented with the D-Ribose cocktail directly into the bag or the platelets were divided into a series of 10 tubes into each of which two ml of platelets were added. Platelet function was assessed by ATP secretion, platelet aggregation, P-selectin expression, platelet count and pH. Platelet function was measured every 24 hours. The bags and tubes were placed on a rotating wheel at room temperature for the duration of the experiment.
# For the concentration test, platelets were stored for five days in standard platelet storage solution at room temperature and gentle agitation with or without various levels of ribose. At five days the P-selectin expression test was performed.
# platelets (aggregation) = assay: Platelet aggregation on thrombin challenge (optical density / aggregometer); format: cell-based
# Description: Another parameter of platelet function is the ability to aggregate when challenged by an agonist. The platelet suspension is dense and milky white. Aggregation and subsequent settling of the aggregates can be estimated visually, or measured with a densitometer.
# As a second measure of the effect of ribose on platelets, platelet aggregation was estimated. Platelet aggregation is a crucial function of platelet activity; platelets that cannot aggregate are essentially nonfunctional. Platelets were stored as above. The optical density of the suspension was measured before and after thrombin challenge.
# Platelet aggregation was measured with a platelet aggregometer (Chronolog, Inc., Irvine, Calif.). Platelet-rich, turbid suspensions were stirred in a cuvette and the transmittance of light through the sample relative to a platelet poor blank is recorded. When a aggregating agent is added, activated platelets with exposed fibrinogen receptors (GPIIbIIIa) are brought in close contact with each other in a medium containing calcium and fibrinogen and form increasingly large platelet aggregates, accompanied by a decrease in turbidity. The change in optical density was then translated by the instrument to percent aggregation. Simple stated, as platelets clump, more light passes through the cuvette.
# [2] = test system: platelets (ATP secretion); assay: ATP secretion of stored platelets in response to 10 nM thrombin (luciferin/luciferase); format: cell-based
# Description: Yet another measure of platelet function is the secretion of ATP. Platelets that are able to function well are able to secrete ATP while cells that have already been activated or have lost funciton in other ways cannot secrete ATP.
# The platelet dense granules shown in FIG. 1 contain ATP which is released in response to platelet agonists such as thrombin, collagen or adenosine diphosphate (ADP). The release reaction of ATP from platelets serves as another method to monitor platelet function. There are many methods to analyze ATP. A convenient method is the well known luciferin/luciferase reaction (Sigma Chemical, St. Louis). This assay is derived from the light producing system of the firefly. The substrate luciferin, in the presence of ATP, is cleaved by the enzyme luciferase, accompanied by the emission of light. The emitted light is measured by a photomultiplier tube
# Platelet suspensions containing about 350 units in 40 μl were mixed with 10 μl luciferin/luciferase reagent. An agonist is injected. As the platelet dense granules release ATP, the bioluminescent reaction occurs, which is measured by the photomultiplier tube. […] The rate of reaction is recorded and as platelet function decays, the rate decays. Total ATP was measured by lysing the cells with Triton and determining ATP content. The results as presented in Table III are expressed as intact rate of ATP secretion.
# platelets = assay: Preservation of platelet function in stored platelets, methods of examples 1 to 6; format: cell-based
# Description: It is known that other pentoses may have similar effects as D-Ribose, either through intracellular conversion to riboe or a direct effect. Ribulose-5-phosphate, xylulose-5-phosphate and xylitol were tested for preservation of activity in stored platelets according to the methods of examples 1 to 6.
# (§1) Bacterial contamination was measured by colony counts in standard Petri dishes that had been inculated with the test solution. It is assumed that the millimolar glucose concentration in most platelet storage solutions contributes to the growth of bacteria. As noted above, Murphy (Table II) discloses a glucose-free solution for the storage of platelets. Elimination of reduction of glucose levels from millimolar to micromolar concentrations has a profound effect in reducing bacterial contamination, however, platelet function at five days, as measured by ATP secretion and P-selectin expression, was poor.
# bacteria = assay: Bacterial contamination of platelet storage solution by colony counts in Petri dishes; settings: D-Ribose added to the storage cocktail
# Description: as §1
# [3] = test system: platelets (adhesion to adventitia of human renal artery); assay: Platelet adhesion assay in microflow chamber on human renal artery section; format: cell-based; settings: 1.5 mM D-ribose solution, eight days of storage
# Description: The ability of platelets to aggregate as a measure of function can also be assayed by ability to adhere to and […] on tissue, such as the adventitia and intima of arteries. Normal, healthy, functional platelets will show deposition and attachment onto tissue whereas compromised, poorly functional or nonfunctional platelets will have decreased levels of platelet attachment. Platelet rich plasma (PRP) was prepared from a random donor bag of platelets, which were harvested and resuspended in plasma at a concentration of at least 10^6 platelets per milliliter. On Day 1, the platelets were allowed to stand at room temperature for eight hours and were then tested in the platelet adhesion assay. Fresh frozen human renal artery was sectioned and placed flat on a microscope slide. A microflow chamber was constructed to pull PRP across the section at a defined flow rate and defined shear rate. The direction of flow is adventitia, through the media and intima and into the lumen, as illustrated in FIG. 10. Functional platelets will adhere to the adventitia and form accretion zones that initiate at the adventitia (the outside of the blood vessel) and extend across the media and intima. Non-functional platelets are unable to adhere to the adventitia. Therefore, the adhesion assay is a sensitive test of platelet function. Following the baseline test, a portion of the platelet suspension was set aside as control, without additional solution added. Another portion of the platelets were suspended in a solution containing: [table]
# [4] = 30 grams of ribose each day, subjects; cited from earlier work
# [5] = 1.5 mM down to 150 pM, analyzed every 24 hours
structure (smiles),measurement,setting,value
"O=C(CO)[C@@H](O)[C@H](O)COP(=O)(O)O [xylulose-5-phosphate, Xylulose-5-phosphate]",P-selectin expression in response to 10 nM thrombin challenge,[1]; five-day treated platelets,67.7%
same,P-selectin spontaneous expression,[1]; five-day treated platelets,37.5%
same,platelet aggregation,platelets (aggregation); five days storage,weak
same,"ATP secretion, retention of basal value",[2]; five days storage,64.5%
OC[C@@H](O)[C@H](O)[C@@H](O)CO [xylitol],preservation of platelet function,platelets,some benefit
O=C(CO)[C@H](O)[C@H](O)COP(=O)(O)O [Ribulose-5-phosphate],P-selectin expression in response to thrombin challenge versus controls,[1]; [5],No difference from controls
same,platelet aggregation versus controls,platelets (aggregation); [5],No difference from controls
same,ATP secretion in response to 10 nM thrombin versus controls,[2]; [5],No difference from controls
O=C[C@H](O)[C@H](O)[C@H](O)CO [D-Ribose],incidence of bacterial contamination,bacteria,lower incidence of bacterial contamination
same,Difference (% capable of being activated),[1]; 150 pM D-Ribose,10.9%
same,% Positive,"[1]; 150 pM D-Ribose, + thrombin",42.6%
same,P-Selectin Expression,"[1]; 150 pM D-Ribose, + thrombin",15475
same,% Positive,"[1]; 150 pM D-Ribose, basal",31.7%
same,P-Selectin Expression,"[1]; 150 pM D-Ribose, basal",11260
same,preserving function (P-selectin expression test),"[1]; 150 pM D-Ribose, five days storage",ineffective
same,retained activity,"[1]; 150 nM D-Ribose, 8 days of storage",greater than 75%
same,retained activity,"[1]; 150 nM D-Ribose, 10 days of storage",greater than 50%
same,Difference (% capable of being activated),[1]; 150 nM D-Ribose,60.6%
same,% Positive,"[1]; 150 nM D-Ribose, + thrombin",65.7%
same,P-Selectin Expression,"[1]; 150 nM D-Ribose, + thrombin",41480
same,% Positive,"[1]; 150 nM D-Ribose, basal",5.1%
same,P-Selectin Expression,"[1]; 150 nM D-Ribose, basal",2465
same,retained P-selectin expression activity,"[1]; 150 nM D-Ribose, five days storage",about 60%
same,retention of activation activity on activation with thrombin,"[1]; 153 nM D-Ribose, three days storage",78.8%
same,positive (activated) cells,"[1]; 153 nM D-Ribose, three days storage, basal",5%
same,Difference (% capable of being activated),[1]; 15 μM D-Ribose,58.3%
same,% Positive,"[1]; 15 μM D-Ribose, + thrombin",64.4%
same,P-Selectin Expression,"[1]; 15 μM D-Ribose, + thrombin",34960
same,% Positive,"[1]; 15 μM D-Ribose, basal",6.1%
same,P-Selectin Expression,"[1]; 15 μM D-Ribose, basal",3275
same,Difference (% capable of being activated),[1]; 1.5 mM D-Ribose,34.4%
same,% Positive,"[1]; 1.5 mM D-Ribose, + thrombin",60.0%
same,P-Selectin Expression,"[1]; 1.5 mM D-Ribose, + thrombin",32400
same,% Positive,"[1]; 1.5 mM D-Ribose, basal",40.4%
same,P-Selectin Expression,"[1]; 1.5 mM D-Ribose, basal",21605
same,retained P-selectin expression activity,"[1]; 1.5 mM D-Ribose, five days storage",about 60%
same,platelet samples with aggressive aggregation response to 10 nM thrombin,platelets (aggregation); day 3,all five
same,platelet samples responding (aggregation) to 10 nM thrombin,platelets (aggregation); day five,four out of five
same,platelet samples able to aggregate in response to thrombin challenge,platelets (aggregation); day seven,three out of five
same,aggregation on thrombin challenge,platelets (aggregation); platelets stored in 150 pM D-Ribose,no aggregation
same,aggregation on thrombin challenge,platelets (aggregation); platelets stored in 150 nM D-Ribose,strong aggregation
same,aggregation on thrombin challenge,platelets (aggregation); platelets stored in 15 μM D-Ribose,very weak effect
same,aggregation on thrombin challenge,platelets (aggregation); platelets stored in 1.5 mM D-Ribose,no aggregation
same,preservative effect on ATP secretion,[2]; 1.5 nM D-Ribose,no preservative effect
same,rise of total ATP content of treated cells,[2]; 150 nM D-Ribose,more than 10%
same,Rate of ATP secretion,"[2]; 150 nM D-Ribose, day 1, 10 nM thrombin",1.9
same,Total ATP,"[2]; 150 nM D-Ribose, day 1, cells lysed with Triton",3.0
same,Rate of ATP secretion,"[2]; 150 nM D-Ribose, day 3, 10 nM thrombin",1.9
same,Total ATP,"[2]; 150 nM D-Ribose, day 3, cells lysed with Triton",3.2
same,Rate of ATP secretion,"[2]; 150 nM D-Ribose, day 5, 10 nM thrombin",1.7
same,Total ATP,"[2]; 150 nM D-Ribose, day 5, cells lysed with Triton",3.4
same,Rate of ATP secretion,"[2]; 150 nM D-Ribose, day 7, 10 nM thrombin",1.6
same,Total ATP,"[2]; 150 nM D-Ribose, day 7, cells lysed with Triton",3.4
same,effect on ATP secretion,[2]; 15 mM D-Ribose,no effect
same,toxicity to platelets,[2]; 15 mM D-Ribose,toxic to platelets
same,"ATP secretion activity, % of baseline","[2]; optimal amounts of D-Ribose (150 nM), day 7",> 80%
same,"mean ATP secretion activity, % of baseline","[2]; optimal amounts of D-Ribose (150 nM), five days",90%
same,platelet adhesion,[3]; 30 seconds of flow,very early platelet adhesion at the adventitia
same,platelet adhesion and accretion,[3]; 2.5 minutes of flow,significant platelet adhesion and accretion zones
same,platelet adhesion and accretion,[3]; 4.5 minutes of flow,formed a large platelet mass at the adventitia
same,tolerance of ingestion,[4],no ill effects
